Test results from PubChem BioAssay AID1963965 (Molecular Pharmacology Branch, DTP, NCI, 2024).

Test system: 996289-038-R-J1-PDC spheroid viability
Test: Anticancer human tumor 996289-038-R-J1-PDC patient-derived colon adenocarcinoma cell line growth inhibition [PI3K]
Conditions: spheroids with HUVEC and MSC; for viability, T/C: stronger effect = lower value
Procedure, shortened: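 Combination activity was assessed by viability in multicellular tumor spheroids carrying HUVEC and MSC components. Agents were tested with PI3K inhibitors from a Cmax-based top dose (or 10 microM) downward in half-log increments.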

[1] = curve of first compound, second compound 0.0316 µM
[2] = curve of first compound, second compound 0.1 µM
[3] = curve of first compound, second compound 0.316 µM
[4] = curve of first compound, second compound 1 µM
[5] = second compound 0.0316 µM, first compound 0.0316 µM
[6] = second compound 0.0316 µM, first compound 0.1 µM
[7] = second compound 0.0316 µM, first compound 0.316 µM
[8] = second compound 0.0316 µM, first compound 1 µM
[9] = second compound 0.0316 µM, first compound 3.16 µM
[10] = second compound 0.0316 µM, first compound 10 µM
[11] = second compound 0.1 µM, first compound 0.0316 µM
[12] = second compound 0.1 µM, first compound 0.1 µM
[13] = second compound 0.1 µM, first compound 0.316 µM
[14] = second compound 0.1 µM, first compound 1 µM
[15] = second compound 0.1 µM, first compound 3.16 µM
[16] = second compound 0.1 µM, first compound 10 µM
[17] = second compound 0.316 µM, first compound 0.0316 µM
[18] = second compound 0.316 µM, first compound 0.1 µM
[19] = second compound 0.316 µM, first compound 0.316 µM
[20] = second compound 0.316 µM, first compound 1 µM
[21] = second compound 0.316 µM, first compound 3.16 µM
[22] = second compound 0.316 µM, first compound 10 µM
[23] = second compound 1 µM, first compound 0.0316 µM
[24] = second compound 1 µM, first compound 0.1 µM
[25] = second compound 1 µM, first compound 0.316 µM
[26] = second compound 1 µM, first compound 1 µM
[27] = second compound 1 µM, first compound 3.16 µM
[28] = second compound 1 µM, first compound 10 µM
[29] = curve of first compound, second compound 3.16 µM
[30] = curve of first compound, second compound 10 µM
[31] = second compound 3.16 µM, first compound 0.0316 µM
[32] = second compound 3.16 µM, first compound 0.1 µM
[33] = second compound 3.16 µM, first compound 0.316 µM
[34] = second compound 3.16 µM, first compound 1 µM
[35] = second compound 3.16 µM, first compound 3.16 µM
[36] = second compound 3.16 µM, first compound 10 µM
[37] = second compound 10 µM, first compound 0.0316 µM
[38] = second compound 10 µM, first compound 0.1 µM
[39] = second compound 10 µM, first compound 0.316 µM
[40] = second compound 10 µM, first compound 1 µM
[41] = second compound 10 µM, first compound 3.16 µM
[42] = second compound 10 µM, first compound 10 µM
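Further: spheroids exposed to compounds for seven days before viability read.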
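Wherever viability, T/C is given: luminescence used as a proxy for viable cell amount; percent viability relative to DMSO vehicle control as 100%.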

Work on C#Cc1c(F)ccc2cc(O)cc(-c3ncc4c(N5CC6CCC(C5)N6)nc(OCC56CCCN5CC(F)C6)nc4c3F)c12 (configuration not stated) + COc1c(OCCCN2CCOCC2)ccc2c3n(c(=NC(=O)c4cnc(N)nc4)nc12)CCN3 yielded an IC50 (curve of first compound, second compound 0.00316 µM) of 0.807 µM, an IC50 (curve of first compound, second compound 0.01 µM) of 0.507 µM and an IC50 [1] of 0.231 µM. The IC50 [2] was 0.0574 µM, the IC50 [3] was less than 0.0316 µM and the IC50 [4] was less than 0.0316 µM. For the same compound, the viability, T/C (second compound 0.00316 µM, first compound 0.0316 µM) was 91.4%, the viability, T/C (second compound 0.00316 µM, first compound 0.1 µM) was 71.3% and the viability, T/C (second compound 0.00316 µM, first compound 0.316 µM) was 60.9%. It also gave a viability, T/C (second compound 0.00316 µM, first compound 1 µM) of 47.2%, a viability, T/C (second compound 0.00316 µM, first compound 3.16 µM) of 39.9% and a viability, T/C (second compound 0.00316 µM, first compound 10 µM) of 35.3%. It also gave a viability, T/C (second compound 0.01 µM, first compound 0.0316 µM) of 79.8%, a viability, T/C (second compound 0.01 µM, first compound 0.1 µM) of 83.6% and a viability, T/C (second compound 0.01 µM, first compound 0.316 µM) of 55.4%. For the same compound, the viability, T/C (second compound 0.01 µM, first compound 1 µM) was 40.3%, the viability, T/C (second compound 0.01 µM, first compound 3.16 µM) was 31.1% and the viability, T/C (second compound 0.01 µM, first compound 10 µM) was 26.9%. The viability, T/C [5] was 68.7%, the viability, T/C [6] was 61.3% and the viability, T/C [7] was 45%. The viability, T/C [8] was 33.2%, the viability, T/C [9] was 25.8% and the viability, T/C [10] was 19%. It also gave a viability, T/C [11] of 55.1%, a viability, T/C [12] of 46% and a viability, T/C [13] of 29.6%. It also gave a viability, T/C [14] of 23.1%, a viability, T/C [15] of 16.4% and a viability, T/C [16] of 14.8%. It also gave a viability, T/C [17] of 35.3%, a viability, T/C [18] of 27.9% and a viability, T/C [19] of 19.7%. For the same compound, the viability, T/C [20] was 14%, the viability, T/C [21] was 10.6% and the viability, T/C [22] was 7.75%. For the same compound, the viability, T/C [23] was 15.9%, the viability, T/C [24] was 16.8% and the viability, T/C [25] was 11.1%. It also gave a viability, T/C [26] of 7.03%, a viability, T/C [27] of 5.65% and a viability, T/C [28] of 4.52%.
In the case of CC(Cn1ccc(-c2ccc(C#N)c(Cl)c2)n1)NC(=O)c1cc(C(C)O)[nH]n1 (configuration not stated) + CC(Nc1ncnc2nc[nH]c12)c1cc2cccc(Cl)c2c(=O)n1-c1ccccc1, the IC50 [1] is reported as greater than 10 µM, the IC50 [2] is reported as greater than 10 µM and the IC50 [3] is reported as greater than 10 µM. It also gave an IC50 [4] greater than 10 µM, an IC50 [29] greater than 10 µM and an IC50 [30] greater than 10 µM. The viability, T/C [5] was 109%, the viability, T/C [6] was 89.9% and the viability, T/C [7] was 108%. The viability, T/C [8] was 110%, the viability, T/C [9] was 106% and the viability, T/C [10] was 101%. For the same compound, the viability, T/C [11] was 95.2%, the viability, T/C [12] was 97.3% and the viability, T/C [13] was 102%. It also gave a viability, T/C [14] of 101%, a viability, T/C [15] of 110% and a viability, T/C [16] of 91.5%. The viability, T/C [17] was 105%, the viability, T/C [18] was 99.2% and the viability, T/C [19] was 105%. It also gave a viability, T/C [20] of 93.9%, a viability, T/C [21] of 113% and a viability, T/C [22] of 91.3%. For the same compound, the viability, T/C [23] was 95.7%, the viability, T/C [24] was 96.2% and the viability, T/C [25] was 97.3%. The viability, T/C [26] was 99.3%, the viability, T/C [27] was 102% and the viability, T/C [28] was 106%. It also gave a viability, T/C [31] of 91.6%, a viability, T/C [32] of 92.7% and a viability, T/C [33] of 96.7%. It also gave a viability, T/C [34] of 90.6%, a viability, T/C [35] of 91.9% and a viability, T/C [36] of 84.7%. It also gave a viability, T/C [37] of 80.2%, a viability, T/C [38] of 81.8% and a viability, T/C [39] of 84.6%. It also gave a viability, T/C [40] of 91.5%, a viability, T/C [41] of 100% and a viability, T/C [42] of 89.8%.
Compound CCCS(=O)(=O)Nc1ccc(F)c(C(=O)c2c[nH]c3ncc(-c4ccc(Cl)cc4)cc23)c1F + CC(Nc1ncnc2nc[nH]c12)c1cc2cccc(Cl)c2c(=O)n1-c1ccccc1 has an IC50 [1] of 6.51 µM, an IC50 [2] of 6.87 µM and an IC50 [3] of 6.7 µM. For the same compound, the IC50 [4] was 6.63 µM, the IC50 [29] was 6.55 µM and the IC50 [30] was 5.93 µM. For the same compound, the viability, T/C [5] was 99.5%, the viability, T/C [6] was 98.8% and the viability, T/C [7] was 103%. The viability, T/C [8] was 97.1%, the viability, T/C [9] was 98.6% and the viability, T/C [10] was 21.1%. For the same compound, the viability, T/C [11] was 103%, the viability, T/C [12] was 96.8% and the viability, T/C [13] was 119%. The viability, T/C [14] was 107%, the viability, T/C [15] was 111% and the viability, T/C [16] was 22.2%. The viability, T/C [17] was 89.8%, the viability, T/C [18] was 103% and the viability, T/C [19] was 107%. It also gave a viability, T/C [20] of 106%, a viability, T/C [21] of 99.7% and a viability, T/C [22] of 23.5%. It also gave a viability, T/C [23] of 105%, a viability, T/C [24] of 98.2% and a viability, T/C [25] of 96.9%. For the same compound, the viability, T/C [26] was 89%, the viability, T/C [27] was 102% and the viability, T/C [28] was 23.2%. The viability, T/C [31] was 94.9%, the viability, T/C [32] was 95.4% and the viability, T/C [33] was 93.2%. The viability, T/C [34] was 85.6%, the viability, T/C [35] was 101% and the viability, T/C [36] was 24.2%. The viability, T/C [37] was 87%, the viability, T/C [38] was 87.8% and the viability, T/C [39] was 88.3%. It also gave a viability, T/C [40] of 82.5%, a viability, T/C [41] of 99.6% and a viability, T/C [42] of 17.5%.
For CC1(C)CCC(Nc2ncc(C(F)(F)F)c(-c3c[nH]c4c(P(C)(C)=O)c(C#N)ccc34)n2)CN1 (configuration not stated), the viability, T/C (compound 0.1 µM) was 86.5% [middle of 4 runs], the viability, T/C (compound 0.316 µM) was 86% [middle of 4 runs] and the viability, T/C (compound 1 µM) was 88.9% [middle of 4 runs]. For the same compound, the viability, T/C (compound 3.16 µM) was 91.5% [middle of 4 runs], the viability, T/C (compound 10 µM) was 26.9% [middle of 4 runs] and the IC50 (curve of compound) was 6.64 µM [middle of 4 runs].
